Results on twelve compounds are retold here after patent US8133884B2, “Compounds for the treatment of hepatitis C” (priority 2008, dated 2012).

Structures are written as SMILES.

T1 sequence (Q9WMX2 2420-2992): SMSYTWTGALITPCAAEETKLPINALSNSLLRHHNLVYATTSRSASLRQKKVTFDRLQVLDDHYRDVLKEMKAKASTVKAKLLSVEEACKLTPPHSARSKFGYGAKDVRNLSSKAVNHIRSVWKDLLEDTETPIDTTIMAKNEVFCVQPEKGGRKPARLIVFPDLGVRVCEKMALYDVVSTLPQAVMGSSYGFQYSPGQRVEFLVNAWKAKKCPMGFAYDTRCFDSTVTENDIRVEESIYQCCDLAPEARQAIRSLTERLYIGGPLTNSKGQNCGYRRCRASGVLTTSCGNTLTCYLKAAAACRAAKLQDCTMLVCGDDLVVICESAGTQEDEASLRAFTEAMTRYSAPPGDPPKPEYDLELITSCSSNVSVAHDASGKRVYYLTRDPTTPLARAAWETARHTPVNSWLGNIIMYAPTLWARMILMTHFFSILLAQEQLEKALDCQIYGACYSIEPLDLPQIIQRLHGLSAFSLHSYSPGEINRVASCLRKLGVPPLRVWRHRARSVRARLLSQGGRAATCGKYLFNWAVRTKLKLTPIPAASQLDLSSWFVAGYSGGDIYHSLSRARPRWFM

The assay has as its target T1, HCV NS5B (Hepatitis C virus genotype 1b, UniProt Q9WMX2).
T1 construct: The protein was expressed with an 18 amino acid C-terminal truncation to enhance the solubility; made in house; host or cells: E. coli BL21(DE3)
The experiment in a line: Modified HCV NS5B RdRp enzyme assay (preincubation protocol). Type of assay: biochemical. To be noted: class symbol. The procedure:
The cDNA encoding the NS5B protein of HCV, genotype 1b, was cloned into the pET21a expression vector. The protein was expressed with an 18 amino acid C-terminal truncation to enhance the solubility. The E. coli competent cell line BL21(DE3) was used for expression of the protein. Cultures were grown at 37° C. for ˜4 hours until the cultures reached an optical density of 2.0 at 600 nm. The cultures were cooled to 20° C. and induced with 1 mM IPTG. Fresh ampicillin was added to a final concentration of 50 μg/ml and the cells were grown overnight at 20° C.
Cell pellets (3 L) were lysed for purification to yield 15-24 mgs of purified NS5B. The lysis buffer consisted of 20 mM Tris-HCl, pH 7.4, 500 mM NaCl, 0.5% triton X-100, 1 mM DTT, 1 mM EDTA, 20% glycerol, 0.5 mg/ml lysozyme, 10 mM MgCl2, 15 ug/ml deoxyribonuclease I, and Complete TM protease inhibitor tablets (Roche). After addition of the lysis buffer, frozen cell pellets were resuspended using a tissue homogenizer. To reduce the viscosity of the sample, aliquots of the lysate were sonicated on ice using a microtip attached to a Branson sonicator. The sonicated lysate was centrifuged at 100,000×g for 1 hr at 4° C. and filtered through a 0.2 μm filter unit (Corning).
The protein was purified using three sequential chromatography steps: Heparin sepharose CL-6B, polyU sepharose 4B, and […] SP sepharose (Pharmacia). The chromatography buffers were identical to the lysis buffer but contained no lysozyme, deoxyribonuclease I, MgCl2 or protease inhibitor and the NaCl concentration of the buffer was adjusted according to the requirements for charging the protein onto the column. Each column was eluted with a NaCl gradient which varied in length from 5-50 column volumes depending on the column type. After the final chromatography step, the resulting purity of the enzyme is >90% based on SDS-PAGE analysis. The enzyme was aliquoted and stored at −80° C.
HCV RdRp genotype 1b assays were run in a final volume of 60 μl in 96 well plates (Costar 3912). The assay buffer is composed of 20 mM Hepes, pH 7.5, 2.5 mM KCl, 2.5 mM MgCl2, 1 mM DTT, 1.6 U RNAse inhibitor (Promega N2515), 0.1 mg/ml BSA (Promega R3961), and 2% glycerol. All compounds were serially diluted (3-fold) in DMSO and diluted further in water such that the final concentration of DMSO in the assay was 2%. HCV RdRp genotype 1b enzyme was used at a final concentration of 28 nM. A polyA template was used at 6 nM, and a biotinylated oligo-dT12 primer was used at 180 nM final concentration. Template was obtained commercially (Amersham 27-4110). Biotinylated primer was prepared by Sigma Genosys. 3H-UTP was used at 0.6 μCi (0.29 μM total UTP). Reactions were initiated by the addition of enzyme, incubated at 30° C. for 60 min, and stopped by adding 25 μl of 50 mM EDTA containing SPA beads (4 μg/μl, Amersham RPNQ 0007). Plates were read on a Packard TOPCOUNT® NXT after >1 hr incubation at room temperature.
A modified enzyme assay was performed essentially as described for the standard enzyme assay except for the following: The biotinylated oligo dT12 primer was precaptured on streptavidin-coated SPA beads by mixing primer and beads in assay buffer and incubating at room temperature for one hour. Unbound primer was removed after centrifugation. The primer-bound beads were resuspended in 20 mM Hepes buffer, pH 7.5 and used in the assay at final concentrations of 20 nM primer and 0.67 μg/μl beads. Order of addition in the assay: enzyme (14 nM) was added to diluted compound followed by the addition of a mixture of template (0.2 nM), 3H-UTP (0.6 μCi, 0.29 μM), and primer-bound beads, to initiate the reaction; concentrations given are final. Reactions were allowed to proceed for 4 hours at 30° C.
IC50 values for compounds were determined using seven different [I]. IC50 values were calculated from the inhibition using the formula y=A+((B−A)/(1+((C/x)^D))).
Compound `CCOC(=O)c1cnn(C2CCC2)c1C1=Cc2cc(OC)ccc2-c2c(C3CCCCC3)c3ccc(C(=O)OC(C)(C)C)cc3n2C1` registered an IC50 greater than 500 nM.

In turn, `COc1ccc2c(c1)C=C(c1c(C(=O)O)cnn1C1CCC1)Cn1c-2c(C2CCCCC2)c2ccc(C(=O)NS(=O)(=O)CC(C)C)cc21` came in with an IC50 of 1.7 to 500 nM.

For `COc1ccc2c(c1)C=C(c1c(C(=O)O)cnn1C1CCC1)Cn1c-2c(C2CCCCC2)c2ccc(C(=O)NS(=O)(=O)C(C)C)cc21`, the IC50 lay in the range of 1.7 to 500 nM.

For the compound `CCOC(=O)c1cnn(C2CCC2)c1C1=Cc2cc(OC)ccc2-c2c(C3CCCCC3)c3ccc(C(=O)NS(=O)(=O)CC(C)C)cc3n2C1`, the IC50 is 1.7 to 500 nM.

In turn, `CCOC(=O)c1cnn(C2CCC2)c1C1=Cc2cc(OC)ccc2-c2c(C3CCCCC3)c3ccc(C(=O)NS(=O)(=O)C(C)C)cc3n2C1` yielded an IC50 of 1.7 to 500 nM.

Turning to `CCOC(=O)c1cnn(C2CCOCC2)c1C1=Cc2cc(OC)ccc2-c2c(C3CCCCC3)c3ccc(C(=O)O)cc3n2C1`, the IC50 was in the range of 1.7 to 500 nM.

Compound `CCOC(=O)c1cnn(C2CCOCC2)c1C1=Cc2cc(OC)ccc2-c2c(C3CCCCC3)c3ccc(C(=O)NS(=O)(=O)C(C)C)cc3n2C1` yielded an IC50 of 1.7 to 500 nM.

The compound `COc1ccc2c(c1)C=C(c1c(C(=O)O)cnn1C1CCOCC1)Cn1c-2c(C2CCCCC2)c2ccc(C(=O)NS(=O)(=O)C(C)C)cc21` registered a 50% inhibitory concentration (IC50) of 1.7 to 500 nM.

`CCOC(=O)c1cnn(C2CCOCC2)c1C1=Cc2cc(OC)ccc2-c2c(C3CCCCC3)c3ccc(C(=O)NS(=O)(=O)CC(C)C)cc3n2C1`: the half-inhibitory concentration (IC50) was 1.7 to 500 nM.

In the case of `COc1ccc2c(c1)C=C(c1c(C(=O)O)cnn1C1CCOCC1)Cn1c-2c(C2CCCCC2)c2ccc(C(=O)NS(=O)(=O)CC(C)C)cc21`, the IC50 was in the range of 1.7 to 500 nM.

For the compound `COc1ccc2c(c1)C=C(c1c(C(=O)N3CCCN(C)CC3)cnn1C1CCC1)Cn1c-2c(C2CCCCC2)c2ccc(C(=O)NS(=O)(=O)C(C)C)cc21`, the IC50 lay within 1.7 to 500 nM.

`CCN1CC2CC1CN2C(=O)c1c(C2=Cc3cc(OC)ccc3-c3c(C4CCCCC4)c4ccc(C(=O)NS(=O)(=O)C(C)C)cc4n3C2)ncn1C1CC1` (stereo not drawn) had an IC50 of 1.7 to 500 nM.
